Assay results taken from patent publication US6872852B2, “Polyamine analogues as cytotoxic agents” (MediQuest Therapeutics, Inc., priority 2000, dated 2005).

How the values were obtained:
MDA-MB-231 cells [1] = assay: Cytotoxicity, MTS assay after 3 days; type: cell-based, human; settings: for IC50: 3 days incubation, MTS, determined by the inventors, read-out: IC50 against MDA cells
Description: After a total of 3-days, cell growth was evaluated by MTS assay (Promega).

SK-MEL-5 cells = assay: Cytotoxicity, MTS assay after 3 days; type: cell-based; settings: 3 days incubation, read-out: IC50 against SK-MEL-5 cells
Description: Briefly, cells were plated at 1500 (SK-MEL-5) or 5000 (MDA) cells/well in a 96-well plate and allowed to adhere for 1 day. The indicated analogues were added and the cells were incubated for 3 days, when cell growth was evaluated by MTS assay (Promega). Vertical axis represents cell number as a % of no drug treatment controls. Additionally, significant activity was seen against PC-3 cells (see FIGS. 4 and 11).

PC-3 cells [2] = assay: Cytotoxicity / cell growth, MTS assay; type: cell-based, human; settings: for inhibition of growth of PC-3 cells: 3 days; for IC50: determined by the present inventors
Description: Involvement of the pro-apoptotic caspase-3 enzyme in the action of OR 1313 is shown by the experiment represented in FIG. 10. Briefly, PC-3 cells were plated at 1000 cells/well in a 96-well plate and allowed to adhere for 1 day. 10 μM of ORI 1313 and 0, 5, or 15 μM Z-DEVD-fmk, a caspase inhibitor, were added and the cells were incubated for 3 days. Cell growth was evaluated by MTS assay (Promega). Vertical axis represents cell number as a % of no drug treatment controls.

MDA cells = assay: NCI 60-cell line screen; type: cell-based, human; settings: determined by NCI
Description: (§1) ORI 1313 and ORI 1327 were evaluated by the National Cancer Institute (NCI) with a 60-cell line screen.

PC-3 cells [3] = assay: NCI 60-cell line screen; type: cell-based, human; settings: determined by NCI
Description: as §1

melanoma cell lines = assay: NCI 60-cell line screen; type: cell-based; settings: 8 melanoma lines
Description: as §1

MDA-MB-231 cells [4] = assay: Cell cycle analysis by FACS (propidium iodide), apoptotic fraction; type: cell-based, human
Description: Cell cycle analysis was performed using fluorescent activated cell sorter (FACS) analysis on polyamine analogue treated MDA cells (see FIGS. 7A-7C). Briefly, MDA-MB-231 cells were grown in the presence of ORI 1313 or ORI 1327 for various times then fixed with ethanol and stained with propidium iodide. Cells were analyzed by FACS, with the areas on the histograms designating DNA content and cell cycle stage: M1, G1; M2, S; M3, G2/M; M4, <2N (apoptotic cells).

[5] = test system: MES-SA/Dx5 uterine sarcoma cell line; assay: Growth inhibition of multi-drug resistant cells, MTS assay; type: cell-based, human; settings: inferred from parent vs MDR-1 expressing line
Description: An unexpected observation made during the cellular characterization of ORI 1313 and ORI 1327 was their growth inhibitory activity against the multi-drug resistant (MDR) uterine sarcoma cell line, MES-SA/Dx5 (see FIGS. 8A and 8B). Briefly, cells were plated at 1000 cells/well in a 96-well plate and allowed to adhere for 1 day. The indicated analogue was added and the cells were incubated for 3 days when cell growth was evaluated by MTS assay (Promega). Vertical axis represents cell number as a % of no drug treatment controls
The MES-SA/Dx5 cell line was developed by selection on doxorubicin and over-expresses the mRNA of the multi-drug resistance gene (MDR-1). The cells are thus much less sensitive to drugs exported via P-glycoprotein (P-gp). See Harker, W. G. et al. Multi-drug (pleiotropic) resistance in doxorubicin-selected variants of the human sarcoma cell line MES-SA. Cancer Research, 1985, 45, 4091-4096. […] This will be particularly advantageous in situations involving target cells expressing MDR-1.

[6] = test system: cellular polyamine levels; assay: Intracellular polyamine levels by HPLC; type: cell-based; settings: 11 hr treatment
Description: To determine the effects of treatment with polyamine analogues on cellular polyamine levels, intracellular polyamine levels were measured by high performance liquid chromatography (HPLC) after 11 hr treatment with ORI 1313 (32 μM) or ORI 1327 (3 μM). […] This observation is consistent with the previous observations in the field.

cell growth = assay: Co-treatment experiments on analogue cytotoxicity; type: cell-based; settings: for effect of co-treatment with DFMO on results: 1 mM DFMO; for effect of co-treatment with putrescine on cytotoxic effects: 50-fold excess concentration of putrescine; for effect of co-treatment with ORI 1202 on inhibition of cell growth: polyamine transport inhibitor ORI 1202
[7] = test system: putrescine uptake into MDA cells; assay: Inhibition of 3H-putrescine uptake; type: cell-based, human; settings: read-out: Kiapp versus putrescine uptake into MDA cells
[8] = test system: putrescine uptake into PC-3 cells; assay: Inhibition of 3H-putrescine uptake; type: cell-based, human; settings: read-out: Kiapp versus putrescine uptake into PC-3 cells
[9] = test system: A375 human melanoma xenografts; assay: A375 human melanoma xenograft in nude mice; type: in vivo
Description: ORI was tested in a melanoma tumor xenograft tumor models in BALB/c nude mice. […] The xenograft efficacy study would be performed with two drug concentrations. There were four groups of 10 mice. Treatment groups received the maximum tolerated dose (MTD) or ½ MTD of each analogue. […] A positive control group treated with dacarbazine DTIC (dosage of 180 mg/kg i.p. once per day for 5 days) was used to validate this tumor model system.
Female BALB/c nu/nu athymic mice weighing 20 grams were the animal host for the human xenografts. The method of administration was i.p. injections with 9 mM or 4 mM ORI 1313 once daily for the duration of the study (end point when control tumors reached 2000 mg). […] DITC was administered by i.p. injection once daily for 5 days. Treatment started when the tumors reach 5 mm×5 mm size (50 mg). The mouse weight and tumor size were measured twice weekly. The tumor measurements by calipers were then converted to mg tumor volume by the formula L^2×W/2. Once the control tumors reached 2000 mg both the control and treatment group mice were weighed, sacrificed and the tumors removed. The actual weights of tumors were then used to calculate the percent growth inhibition by each analogue using the formula: % growth inhibition=(mean treated tumor weight/mean control tumor weight×100)−100.

[10] = test system: A375 human melanoma cell line; assay: Cytotoxicity against A375 cell line; type: cell-based
BALB/c mice [11] = settings: mouse, in vivo, ip
Description: (§2) Chronic toxicities were evaluated by giving i.p. injections once daily for 5 consecutive days.

BALB/c mice [12] = settings: mouse, in vivo, ip; remark: listed apart in the source
Description: as §2

BALB/c mice [13] = assay: Acute toxicity, single i.p. injection
Description: as §2

BALB/c mice [14] = assay: Chronic toxicity, i.p. once daily for 5 consecutive days
Description: as §2

[15] = test system: [1,4-14C]-putrescine uptake; settings: Frydman et al.; cited from earlier work
[16] = test system: putrescine uptake into MDA cells; settings: read-out: Km for uptake into MDA cells; previously shown; cited from earlier work

**Q.** With `c1ccc(CNCCCNCc2ccccc2)cc1` [N^1, N^3-dibenzyl analog of 1,3-diaminopropane, reference compound] as the molecule, how does the IC50 (MDA-MB-231 cells [1]) read?
**A.** Its IC50 is 28.8 µM.

**Q.** Which IC50 (SK-MEL-5 cells) does the source give for `c1ccc2c(CNCCCCNCc3cccc4ccccc34)cccc2c1` [ORI 1313] here?
**A.** The IC50 was 4.1 µM.

**Q.** What about the IC50 (MDA-MB-231 cells [1]) of the same molecule?
**A.** Its IC50 is 12 µM.

**Q.** What about the “increase over N1,N4-dibenzylputrescine in potency of cytotoxic activity against MDA cells” value (MDA-MB-231 cells [1]) of the same molecule?
**A.** The value was 16 fold.

**Q.** What about the “inhibition of growth of PC-3 cells” value (PC-3 cells [2]; 10 μM ORI 1313 + 5 μM Z-DEVD-fmk) of the same molecule?
**A.** The value was 19%.

**Q.** And the “inhibition of growth of PC-3 cells” value (PC-3 cells [2]; 10 μM ORI 1313 + 15 μM Z-DEVD-fmk)?
**A.** The value was 10%.

**Q.** And the “inhibition of growth of PC-3 cells” value (PC-3 cells [2]; 10 μM ORI 1313 alone)?
**A.** Its value is 46%.

**Q.** What about the IC50 (PC-3 cells [2]) of the same molecule?
**A.** The IC50 was 20 µM.

**Q.** What about the IC50 (MDA cells) of the same molecule?
**A.** The IC50 was 2.3 µM.

**Q.** What about the IC50 (PC-3 cells [3]) of the same molecule?
**A.** The IC50 was 11.2 µM.

**Q.** And the “effectiveness against melanoma cell lines tested” value (melanoma cell lines)?
**A.** Its value is 6 of 8.

**Q.** And the “<2N DNA content (apoptotic fraction)” value (MDA-MB-231 cells [4]; 32 μM, 11 hr treatment)?
**A.** Its value is 21%.

**Q.** And the “<2N DNA content (apoptotic fraction)” value (MDA-MB-231 cells [4]; 32 μM, 24 hr treatment)?
**A.** Its value is 49%.

**Q.** What about the “<2N DNA content (apoptotic fraction)” value (MDA-MB-231 cells [4]; 32 μM, 48 hr treatment) of the same molecule?
**A.** The value was 30%.

**Q.** What about the “substrate for the P-gp multi-drug exporter” value [5] of the same molecule?
**A.** Its value is “not substrates”.

**Q.** What about the “effect on cellular polyamine levels” value ([6]; 32 μM) of the same molecule?
**A.** The value was “no significant effects”.

**Q.** What about the “effect of co-treatment with DFMO on results” value (cell growth) of the same molecule?
**A.** The value was “did not alter”.

**Q.** What about the “effect of co-treatment with putrescine on cytotoxic effects” value (cell growth) of the same molecule?
**A.** The value was “did not block”.

**Q.** And the “effect of co-treatment with ORI 1202 on inhibition of cell growth” value (cell growth)?
**A.** The value was “did not alter”.

**Q.** What about the Ki [7] of the same molecule?
**A.** The Ki was 28.3 µM.

**Q.** What about the Ki [8] of the same molecule?
**A.** Its Ki is 24.1 µM.

**Q.** And the “adverse findings in xenograft study” value ([9]; after 7 weeks of treatment)?
**A.** The value was “transient skin ulceration and weight loss”.

**Q.** And the tumor growth inhibition ([9]; at 25 days, vs 5% dextrose control, i.p. once daily)?
**A.** The tumor growth inhibition was 36%.

**Q.** What about the “tolerability in xenograft study” value ([9]; i.p. once daily, nude mice) of the same molecule?
**A.** The value was “well tolerated up to 7 weeks”.

**Q.** And the tumor growth delay ([9]; vs 5% dextrose control, i.p. once daily)?
**A.** Its tumor growth delay is 6.2 days.

**Q.** And the IC50 [10]?
**A.** Its IC50 is 4.1 µM.

**Q.** What about the solubility (dihydrochloride salt, in 5% DMSO) of the same molecule?
**A.** The solubility was “at least 40 mM”.

**Q.** And the “tolerated dose, acute” value (BALB/c mice [11])?
**A.** The value was 93 mg/kg.

**Q.** And the “approximate maximum tolerated dosage” value (BALB/c mice [12])?
**A.** Its value is about 40 mg/kg.

**Q.** What about the “tolerated dose, chronic” value (BALB/c mice [12]) of the same molecule?
**A.** The value was 40 mg/kg.

**Q.** And the “dose that caused death, acute” value (BALB/c mice [13])?
**A.** Its value is 186 mg/kg.

**Q.** And the “lethal dosage, chronic” value (BALB/c mice [14])?
**A.** Its value is 80 mg/kg.

**Q.** With `c1ccc(N(c2ccccc2)c2ccc(CNCCCCNCc3ccc(N(c4ccccc4)c4ccccc4)cc3)cc2)cc1` [ORI 1327] as the molecule, how does the IC50 (SK-MEL-5 cells) read?
**A.** The IC50 was 0.71 µM.

**Q.** And the IC50 (MDA-MB-231 cells [1])?
**A.** The IC50 was 0.65 µM.

**Q.** What about the “increase over N1,N4-dibenzylputrescine in potency of cytotoxic activity against MDA cells” value (MDA-MB-231 cells [1]) of the same molecule?
**A.** The value was 295 fold.

**Q.** And the IC50 (PC-3 cells [2])?
**A.** The IC50 was 0.65 µM.

**Q.** What about the IC50 (MDA cells) of the same molecule?
**A.** Its IC50 is 0.005 µM.

**Q.** What about the IC50 (PC-3 cells [3]) of the same molecule?
**A.** Its IC50 is 0.81 µM.

**Q.** And the “<2N DNA content (apoptotic fraction)” value (MDA-MB-231 cells [4]; 3 μM, 11 hr treatment)?
**A.** Its value is 15%.

**Q.** And the “substrate for the P-gp multi-drug exporter” value [5]?
**A.** Its value is “not substrates”.

**Q.** What about the “effect on cellular polyamine levels” value ([6]; 3 μM) of the same molecule?
**A.** The value was “no significant effects”.

**Q.** What about the “effect of co-treatment with DFMO on results” value (cell growth) of the same molecule?
**A.** Its value is “did not alter”.

**Q.** And the “effect of co-treatment with putrescine on cytotoxic effects” value (cell growth)?
**A.** Its value is “did not block”.

**Q.** And the “effect of co-treatment with ORI 1202 on inhibition of cell growth” value (cell growth)?
**A.** The value was “did not alter”.

**Q.** And the Ki [8]?
**A.** Its Ki is 14.3 µM.

**Q.** And the “solubility relative to lactate salt” value (dihydrochloride salt)?
**A.** The value was “less soluble”.

**Q.** And the solution concentration produced (hydroxypropyl-β-cyclodextrin, 45% w/v HβC in H2O)?
**A.** Its solution concentration produced is 40 mM.

**Q.** What about the maximum solubility (lactate salt, aqueous) of the same molecule?
**A.** Its maximum solubility is 5000 µM.

**Q.** And the “tolerated dose, acute” value (BALB/c mice [11])?
**A.** Its value is 37 mg/kg.

**Q.** And the “approximate maximum tolerated dosage” value (BALB/c mice [12])?
**A.** The value was about 7.5 mg/kg.

**Q.** What about the “tolerated dose, chronic” value (BALB/c mice [12]) of the same molecule?
**A.** Its value is 7.5 mg/kg.

**Q.** And the “dose that caused death, acute” value (BALB/c mice [13])?
**A.** Its value is 75 mg/kg.

**Q.** What about the “lethal dosage, chronic” value (BALB/c mice [14]) of the same molecule?
**A.** The value was 30 mg/kg.

**Q.** For `NCCCCN` [Putrescine, 1,4-diaminobutane], which “Kmapp, putrescine uptake” value [15] is on record?
**A.** The value was 5.2 ± 0.6 µM.

**Q.** And the Km [16]?
**A.** Its Km is 12.4 µM.
